Reference: a melting point compilation (Tetko et al.; mined from patent text by program, amines drawn as free bases though some values may be those of a salt)

melting point [°C]	SMILES
183 to 184	Nc1nc(Nc2ccccc2)sc1C(=O)c1c(F)cccc1F
128 to 130	CC(=O)NCc1ccc2c(c1)N(C1CCN(CCCc3ccc(F)cc3)CC1)CC2
166	Oc1ccc2c(c1)CCCC(c1ccccc1)=C2c1ccc(OCCCCCCSCCCC(F)(F)C(F)(F)F)cc1
68 to 70	OCc1nccc(N2CCCCC2)c1Cl
238 to 240	O=c1ccc2c(-c3cccs3)nccc2[nH]1
194 to 197	Nc1ccc(C(=O)Nc2ccc(N)cc2Cl)cc1
129 to 136	Cc1cccc(C2=C(c3ccc(F)c(-c4cn[nH]c4)c3)NN(C(C)C)C2)n1
165 to 166	COc1ccc(N2CCN(c3ccc([N+](=O)[O-])cn3)CC2)cc1
90 to 92	COc1ccc(Oc2ccc(C(F)(F)F)cc2Cl)cc1[N+](=O)[O-]
232	CCOc1cc(OCC2CCN(C)CC2)c(F)c(C(Nc2ccc(C(=N)N)cc2)C(=O)O)c1 (racemic)
154	CC1CCCCc2ncc(C#N)c(=O)n21 (stereo not drawn)
214 to 221	CCc1ccc(CCOc2ccc(CC(N)C(=O)O)cc2)nc1 (stereo not drawn)
108 to 111	CC1(c2ccc(N)c(C(=O)c3ccccc3)c2)OCCO1
223 to 225	COC(=O)C1=C(C)NC(C)=C(S(=O)(=O)c2ccc(O)cc2)C1c1ccccc1Cl (stereo not drawn)
257 to 258	Cc1oc(-c2ccccc2)nc1COc1ccc(CC2SC(=N)NC2=O)cc1 (stereo not drawn)
124 to 126	CC#CCOc1ccc(S(=O)(=O)N(C)C2(C(=O)O)CCCCC2)cc1
150 to 152	O=C(O)c1cccc(NCCOc2cccc3ccccc23)c1
115 to 116	Cc1cccc(N2CCN(CCc3c(C)nc4ccc(C)cn4c3=O)CC2)c1
123 to 124	CCOC(Nc1ccccc1)(OCC)C1(Cl)C=CN=C(C(=O)c2ccc(Cl)cc2)C1 (stereo not drawn)
87 to 90	CC(=O)NC[C@H]1CN(c2ccc(N3CCN(C(=O)CO)CC3)c(F)c2)C(=O)O1

melting point [°C]	SMILES
112 to 114	CNC(=O)c1ncn(C(OC)c2ccc(Cl)c(Cl)c2)c1C(=O)NC (single isomer, unassigned; (+))
134 to 137	CC(COc1ccccc1)C1CC=C2C3=C(CCC21C)C1(C)CCC(O)C(C)(C)C1CC3 (stereo not drawn)
296 to 299	N=C1c2nc[nH]c2N(Cc2ccc(Cl)cc2)C2=NCCN12
114 to 116	COc1ccc(NN=C(Cl)C(C)=O)cc1
100 to 107	COC(=O)c1c(C(=O)NC(C)(C(N)=O)C(C)C)cccc1[N+](=O)[O-] (stereo not drawn)
178	CCCCNC(=O)NCCc1nc(-c2ccc(-c3ccccc3)cc2)c[nH]1
144 to 146	Clc1ccc(-c2nc3cccnc3n2Cc2ccccn2)cc1
125 to 127	O=c1c2ccccc2cc(Cl)n1-c1ccc(Cl)cc1
63 to 65	COc1c(CO)cccc1Oc1ccccc1C
135 to 136	CCOc1nn(Cc2ccc(OCc3coc(-c4ccccc4)n3)cc2)cc1CCC(=O)O
349 to 351	N#Cc1ccc2nc3sc(-c4ccccc4)cc3c(=O)n2c1
150	CN(C(=O)COc1cc(-c2ccccc2)nc2ccccc12)c1ccccc1
153 to 155	CCCCCCOc1ccc(C(=O)Nc2ccc(-n3nc(C(F)(F)F)cc3C(F)(F)F)cc2)cc1
138 to 140	COc1cc(CC2(Cc3ccnc(OC)c3)c3ccccc3-c3ncccc32)ccn1
174 to 176	COC(=O)c1c(C)c([N+](=O)[O-])cc2nc(OC)c(OC)nc12
48	COc1cccc(NC(=O)c2ccc(C)cc2)c1C(C)=O
193 to 194	O=c1ccc2cc(OC3CCC4(CCNCC4)CC3)ccc2o1
309	NS(=O)(=O)c1cnc(NC(=O)c2cnn3c(C(F)(F)F)cc(-c4ccc(C(F)(F)F)cc4)nc23)s1
56 to 58	CC(C)N1CCN(c2ccc(C(=O)NCCCCCCCCCCCCO[N+](=O)[O-])cn2)CC1
152	Fc1cccc2c(NCCc3ccc(Oc4ccc(C(F)(F)F)cn4)cc3)ncnc12

melting point [°C]	SMILES
160 to 162	O=C(NCc1ccncc1)c1ccnc(N2CCN(CC3CC3)C2=O)c1
53 to 55	ClCCCOc1ccc(-n2ccnc2)cc1
69 to 71	ClCCCOc1cccc2cccnc12
193	O=C(CC1CCC1)N[C@H]1CC[C@H](CCN2CCN(c3nccc4c3CCO4)CC2)CC1
76 to 77	c1coc(CNc2nccc3ccccc23)c1
214 to 216	O=C(NCc1ccc(Cl)cc1)c1cnc2c(CNCc3ccccc3)cc(CN3CCOCC3)cc2c1O
219 to 221	COc1ccc(-c2c(Br)c(CN3C(=O)CCC3=O)nc3sc4c(c23)CCNC4)cc1
164 to 165	O=[N+]([O-])c1cccc(N2N=C(O)c3ccccc3C2CCO)c1 (stereo not drawn)
84 to 85	COC(=O)c1cccc(-c2nc(-c3cccc(OC(F)(F)F)c3)cs2)c1
207 to 209	O=C(NCc1ccc(Cl)cc1)c1cn(-c2ccccc2)c2oc(CCl)cc2c1=O
141 to 142	CCC(CC)(CC(=O)Nc1ccc2ccc(OCc3ccc4cccc(F)c4n3)cc2c1)C(=O)O
199 to 201	CCCOc1nc(Nc2ccc(F)c(Cl)c2)nc(NC2CCN(S(C)(=O)=O)CC2)n1
167 to 168	CCOC(=O)C(C)NC(=O)N1CCc2cc(S(=O)(=O)N3CCN(c4cccc(Cl)c4)CC3)ccc21 (stereo not drawn)
120 to 123	CC(C)(Cc1c[nH]c2ccccc12)NCC(O)COc1ccccc1C#N (stereo not drawn)
147 to 150	O=C(NC(=O)C(c1ccccc1)c1ccccc1)OCCCc1ccncc1
220 to 221	O=c1[nH]c(COc2ccccc2)nc2nccnc12
188	NC(=O)c1c(C(=O)O)cccc1[N+](=O)[O-]
218 to 219	CCN1CCN(c2ccnc3sc(C(N)=O)c(N)c23)CC1
111	CCC(=O)NCCC1CCc2c(OC)ccc3ccc(OC)c1c23 (stereo not drawn)
160	COc1ccc(C(=O)Nc2ccc3ccc(Oc4cccc(C)c4)nc3n2)cc1

Continued, compound first:

SMILES	melting point [°C]
C[C@@H](c1ccccc1)N1C[C@@H](C(N)=O)CC1=O	149 to 150
OC(Cc1ccncc1)(c1ccccc1)c1ccccc1	154 to 155
COC(=O)c1cc([N+](=O)[O-])c(C(C)(C)C)c([N+](=O)[O-])c1	115 to 117
CN1C/C(=C/C(=O)Nc2ccc(Cl)nn2)C[C@@H]2c3cccc4[nH]cc(c34)C[C@H]21	242 to 243
CC(=Cn1ccnc1)C(=O)c1ccc(Cl)cc1Cl	129 to 130
Cc1ccc(CSC[C@H](NC(=O)C(CS)Cc2ccc(-c3ccccc3)cc2)C(=O)O)cc1 (stereo partly drawn)	131 to 135
Cc1cc(Cl)nc(Br)c1	76
COC(=O)C=Cc1ccc(C)s1	59 to 60
O=C(O)Cc1c(C(=O)c2cccc(Cl)c2)[nH]c2ccc(F)cc12	208 to 212
COC(=O)c1cccc(CNC(=O)OC(C)(C)C)c1O	95 to 96
N#Cc1c[nH]cc1-c1cccc(F)c1	140 to 142
CCN1CC2OC(c3ccccc3)(C1)c1ccccc12 (stereo not drawn)	132 to 134
CC1CC(NC(=O)C(F)(F)F)=NN1c1ccc(Cl)c(Cl)c1 (stereo not drawn)	150 to 152
CCn1c2c(c3ccccc31)Cc1c(CO)c(CO)c(C)n1C2	216 to 217
CCCCCCCCCCCCSC(C)(C)C(=O)O	62 to 64
NC(=O)COC(=O)c1ccccc1	118
CN(C)C1(c2ccccc2)CCC2(OCCc3c2[nH]c2ccc(F)cc32)C(F)C1 (stereo not drawn)	237 to 242
O=CNn1cnc2cc(C(F)(F)F)ccc21	209 to 210
Cn1c(SCC(=O)C23CC4CC(CC(C4)C2)C3)nnc1-c1cccs1	156 to 157
CC(=O)Nc1ccc2c(c1)[nH]c(=O)c(=O)n2CP(=O)(O)O	120
COc1ccc(Cl)c(C)c1C=O	86 to 88
CC(C)(C)Nc1c(NCc2ccncc2)c(=O)c1=O	271 to 272

SMILES	melting point [°C]
Cc1cc(Cl)c(Nc2ccc(C)cc2CC(=O)O)c(Cl)c1	179 to 182
CSC1NC(=O)N(Cc2ccco2)C(=O)N1	209 to 211
CC(NC(=O)Cc1cc(F)cc(F)c1)C(=O)NC1C(=O)NC(C)c2ccccc21 (stereo not drawn)	205 to 206
NC(=O)CCCCCCn1cccc1	228 to 233
CC1C(=O)NC(C)(C)N1C(=O)CNC(=O)CN1CC(O)CC1=O (stereo not drawn)	218 to 220
CCC(CC)(CCl)c1cc(Cl)nnc1Cl	45 to 47
CC(C)(C)C(O)(COC1CCCCO1)Cn1ccnc1 (stereo not drawn)	107
Brc1ccc(-c2ccc(Br)cc2-c2nc3ccccc3[nH]2)c(-c2nc3ccccc3[nH]2)c1	326 to 328
Nc1noc2cc3c(cc12)C1(CO3)C(=O)N(Cc2ccccn2)c2ccccc21 (stereo not drawn)	190 to 192
CC(C)(C)OC(=O)NCCOc1noc2cccc(C#N)c12	116 to 117
CCOc1cc2cc(COC(C)=O)c(COC(C)=O)c(-c3ccnc(-n4ccc5ccccc5c4=O)c3)c2cc1OCC	90 to 93
O=C(O)C1OCc2ccccc2O1 (stereo not drawn)	88
CC(C)NC(=O)c1cc(-n2c(=O)cc(C(F)(F)F)[nH]c2=O)c(F)cc1Cl	234 to 239
N#CC(NC(=O)c1cccc(Cl)c1)n1ccnn1 (stereo not drawn)	157 to 159
COc1ccc(S)nn1	198 to 200
CC(C)OC(=O)Cn1c(=O)n(C)c(=O)n(-c2cc(N=c3sc(=S)n4n3CCCC4)c(F)cc2Cl)c1=O	115 to 122
NCc1ccn(C2=CC3=C(CC2)CCc2[nH]c(=O)c(=O)n(O)c23)c1	> 250
CCc1cc(C)cc(CC)c1C1C(=O)C2CC(COc3nc(C)c(C)s3)CC2C1=O (stereo not drawn)	73 to 74
CSCCC(NC=O)C(N)=O (racemic)	121 to 122
Cc1cc(CCCCCOc2c(Cl)cc(-c3noc(C(F)(F)F)n3)cc2Cl)on1	42 to 43
CCOC(=O)COc1ccc(C=O)c(O)c1	97 to 99
